Results taken from the NIST ThermoML archive (doi:10.1016/j.jct.2014.05.019).

Legend:
[1] = cn = amount concentration of the nth substance listed, in mol/dm3; details: 100 kPa, Liquid, Alternating current cell with electrodes, c1 = 0.1
[2] = 101.33 kPa, Liquid; for viscosity: Falling or rolling sphere viscometry; for mass density: Vibrating tube method
[3] = refractive index (Na D-line) (dimensionless); details: 101.33 kPa, Liquid, Standard Abbe refractometry

[Cl-].[K+] [potassium chloride] + O
[1]
Details | electrical conductivity [S/m]
288.15 K | 1.05
293.15 K | 1.16
295.15 K | 1.21
297.15 K | 1.26
298.15 K | 1.29
299.15 K | 1.31
301.15 K | 1.36
303.15 K | 1.41
308.15 K | 1.54
313.15 K | 1.67
318.15 K | 1.8
323.15 K | 1.91

O [water]
Details | mass density, [2] [kg/m3] | refractive index, [3] | viscosity, [2] [mPa·s]
298.15 K | – | 1.33247 | –
303.15 K | – | 1.33188 | 0.798
308.15 K | – | 1.33124 | 0.719
313.15 K | 992.3 | 1.33053 | 0.654
318.15 K | 990.3 | 1.32974 | 0.595
323.15 K | 988.2 | 1.3289 | 0.546
328.15 K | 985.9 | 1.32799 | 0.506
333.15 K | 983.4 | 1.32704 | 0.466
338.15 K | 980.8 | 1.32605 | 0.435
343.15 K | 978 | 1.32503 | 0.408
